The record followed here is patent publication US10738040B2, “Compounds, compositions, and methods for increasing CFTR activity” (Proteostasis Therapeutics, Inc., priority 2014, dated 2020).

T1 sequence (P13569 with tags, fused parts or gaps DEL508-508): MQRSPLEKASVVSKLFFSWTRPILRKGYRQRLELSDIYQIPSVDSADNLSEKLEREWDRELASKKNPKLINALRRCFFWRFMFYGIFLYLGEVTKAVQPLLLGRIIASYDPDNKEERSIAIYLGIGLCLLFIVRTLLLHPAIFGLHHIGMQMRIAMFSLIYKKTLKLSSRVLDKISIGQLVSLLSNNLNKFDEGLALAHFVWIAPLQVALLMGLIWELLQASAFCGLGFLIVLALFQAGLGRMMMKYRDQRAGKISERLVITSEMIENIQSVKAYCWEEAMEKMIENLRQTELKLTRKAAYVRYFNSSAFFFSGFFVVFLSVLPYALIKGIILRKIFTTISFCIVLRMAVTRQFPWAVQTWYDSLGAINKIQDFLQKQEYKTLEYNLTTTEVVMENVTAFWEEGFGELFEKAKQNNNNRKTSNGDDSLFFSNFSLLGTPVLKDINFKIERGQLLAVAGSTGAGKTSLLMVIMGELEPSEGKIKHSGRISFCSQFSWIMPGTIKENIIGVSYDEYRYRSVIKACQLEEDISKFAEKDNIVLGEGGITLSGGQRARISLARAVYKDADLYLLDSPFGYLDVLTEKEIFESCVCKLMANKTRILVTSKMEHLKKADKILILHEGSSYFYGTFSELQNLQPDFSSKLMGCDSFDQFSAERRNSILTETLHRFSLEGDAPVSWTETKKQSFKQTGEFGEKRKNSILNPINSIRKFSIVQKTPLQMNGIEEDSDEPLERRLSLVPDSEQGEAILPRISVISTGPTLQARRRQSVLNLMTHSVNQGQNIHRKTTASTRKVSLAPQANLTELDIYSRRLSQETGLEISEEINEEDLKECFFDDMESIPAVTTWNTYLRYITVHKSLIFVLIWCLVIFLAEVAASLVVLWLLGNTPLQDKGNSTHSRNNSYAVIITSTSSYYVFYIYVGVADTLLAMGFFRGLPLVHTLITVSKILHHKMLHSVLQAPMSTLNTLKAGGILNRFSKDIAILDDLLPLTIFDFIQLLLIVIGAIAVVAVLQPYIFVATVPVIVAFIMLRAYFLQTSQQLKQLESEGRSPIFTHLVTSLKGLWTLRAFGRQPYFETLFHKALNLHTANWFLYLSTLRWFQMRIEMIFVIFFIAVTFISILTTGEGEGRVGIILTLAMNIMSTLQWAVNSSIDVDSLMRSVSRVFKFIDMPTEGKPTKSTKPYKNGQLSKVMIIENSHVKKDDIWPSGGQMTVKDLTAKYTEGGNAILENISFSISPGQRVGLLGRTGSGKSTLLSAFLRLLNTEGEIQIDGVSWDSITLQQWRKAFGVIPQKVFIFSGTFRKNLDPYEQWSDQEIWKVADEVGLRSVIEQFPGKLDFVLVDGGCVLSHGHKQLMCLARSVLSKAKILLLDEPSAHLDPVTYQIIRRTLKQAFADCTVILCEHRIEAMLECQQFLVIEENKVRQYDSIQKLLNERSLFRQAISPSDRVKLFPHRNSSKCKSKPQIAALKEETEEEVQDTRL

The assay addresses T1, ΔF508-CFTR (Homo sapiens, UniProt P13569, DEL508-508).
T1 construct: Primary lung epithelial cells homozygous for the Cystic Fibrosis-causing ΔF508 mutation were differentiated; endogenous in cells; host or cells: primary human lung (bronchial) epithelial cells homozygous for ΔF508, differentiated at air-liquid interface
The assay is described as follows: hBE equivalent current (Ieq) assay. In kind it is cell-based. The settings on record: compound at 10 uM and VX-809 at 1 uM, relative to VX-809 (1 uM); primary lung epithelial cells homozygous for ΔF508, 24 hours treatment; AUC of equivalent chloride current. On the procedure:
ii. hBE Equivalent Current (Ieq) Assay
Primary lung epithelial cells homozygous for the Cystic Fibrosis-causing ΔF508 mutation were differentiated for a minimum of 4 weeks in an air-liquid interface on Costar 24 well HTS filter plates prior to the equivalent current (Ieq) measurements. Cells were apically mucus-washed for 30 minutes 24 h prior to treatment with compounds. The basolateral media was removed and replaced with media containing the compound of interest diluted to its final concentration from DMSO stocks. Treated cells were incubated at 37° C. and 5% CO2 for 24 hours. At the end of the treatment period, the media was changed to the Ieq experimental solution for 30 minutes before the experiment and plates are maintained in a CO2-free incubator during this period. The plates containing the cells were then placed in pre-warmed heating blocks at 36° ° C.±0.5 for 15 minutes before measurements are taken. The transepithelial voltage (VT) and conductance (GT) were measured using a custom 24 channel current clamp (TECC-24) with 24 well electrode manifold. The Ieq assay measurements were made following additions with standardized time periods: • 1. The baseline VT and GT values were measured for approximately 20 minutes. • 2. Benzamil was added to block ENaC for 15 minutes. • 3. Forskolin plus VX-770 (ivacaftor) were added to maximally activate ΔF508-CFTR for 27 minutes. • 4. Bumetanide was added to inhibit the NaK2Cl cotransporter and shut-off secretion of chloride.
The activity data captured was the area under the curve (AUC) for the traces of the equivalent chloride current. The AUC was collected from the time of the forskolin/VX-770 addition until the inhibition by bumetanide addition. Correction in response to compound treatment was scored as the increase in the AUC for compound-treated samples over that of vehicle-treated samples.
With `C[C@H](O)c1cn([C@H]2C[C@H](NC(=O)c3cc(-c4ccccc4)on3)C2)nn1`, the “Ieq (% VX-809)” value is “** (activity ≥200% of VX-809 (1 uM) with compound at 10 uM and VX-809 at 1 uM)”.
For the compound `C[C@@H](O)c1cn([C@H]2C[C@H](NC(=O)c3cc(-c4ccccc4)on3)C2)nn1`, the “Ieq (% VX-809)” value is “** (activity ≥200% of VX-809 (1 uM) with compound at 10 uM and VX-809 at 1 uM)”.
With `C[C@H](O)c1nnc(C[C@H]2C[C@@H](NC(=O)c3cc(-c4ccccc4)on3)C2)s1`, the “Ieq (% VX-809)” value is “** (activity ≥200% of VX-809 (1 uM) with compound at 10 uM and VX-809 at 1 uM)”.
For the compound `C[C@@H](O)c1nnc(C[C@H]2C[C@@H](NC(=O)c3cc(-c4ccccc4)on3)C2)s1`, the “Ieq (% VX-809)” value was “** (activity ≥200% of VX-809 (1 uM) with compound at 10 uM and VX-809 at 1 uM)”.
As to `O=C(N[C@H]1C[C@@H](c2nnc(CO)o2)C1)c1cc(-c2ccccc2)on1`, the “Ieq (% VX-809)” value was “** (activity ≥200% of VX-809 (1 uM) with compound at 10 uM and VX-809 at 1 uM)”.
As for `O=C(N[C@H]1C[C@@H](c2nnc([C@@H](O)CO)s2)C1)c1cc(-c2ccccc2)on1`, the “Ieq (% VX-809)” value was “** (activity ≥200% of VX-809 (1 uM) with compound at 10 uM and VX-809 at 1 uM)”.
In the case of `O=C(N[C@H]1C[C@H](n2cc(CO)cn2)C1)c1cc(-c2ccccc2)on1`, the “Ieq (% VX-809)” value was “* (activity 100-200% of VX-809 (1 uM) with compound at 10 uM and VX-809 at 1 uM)”.
Take `C[C@@H](O)c1cnn([C@H]2C[C@H](NC(=O)c3cc(-c4ccccc4)on3)C2)c1`: the “Ieq (% VX-809)” value is “** (activity ≥200% of VX-809 (1 uM) with compound at 10 uM and VX-809 at 1 uM)”.
With `C[C@H](O)c1cnn([C@H]2C[C@H](NC(=O)c3cc(-c4ccccc4)on3)C2)c1`, the “Ieq (% VX-809)” value was “** (activity ≥200% of VX-809 (1 uM) with compound at 10 uM and VX-809 at 1 uM)”.
The entry for `O=C(NC1CC(n2cc(CO)cn2)C1)c1cc(-c2ccccc2)on1` (centres unmarked) is “** (activity ≥200% of VX-809 (1 uM) with compound at 10 uM and VX-809 at 1 uM)”; for `O=C(N[C@H]1C[C@H](n2ccc(CO)n2)C1)c1cc(-c2ccccc2)on1` it is “** (activity ≥200% of VX-809 (1 uM) with compound at 10 uM and VX-809 at 1 uM)”.
With `C[C@@H](O)c1ccn([C@H]2C[C@H](NC(=O)c3cc(-c4ccccc4)on3)C2)n1`, the “Ieq (% VX-809)” value was “** (activity ≥200% of VX-809 (1 uM) with compound at 10 uM and VX-809 at 1 uM)”.
As for `C[C@H](O)c1ccn([C@H]2C[C@H](NC(=O)c3cc(-c4ccccc4)on3)C2)n1`, the “Ieq (% VX-809)” value was “** (activity ≥200% of VX-809 (1 uM) with compound at 10 uM and VX-809 at 1 uM)”.
The entry for `O=C(NC1CC(n2ccc(CO)n2)C1)c1cc(-c2ccccc2)on1` (centres unmarked) is “** (activity ≥200% of VX-809 (1 uM) with compound at 10 uM and VX-809 at 1 uM)”.
The entry for `O=C(N[C@H]1C[C@@H](c2nc(CO)no2)C1)c1cc(-c2ccccc2)on1` is “** (activity ≥200% of VX-809 (1 uM) with compound at 10 uM and VX-809 at 1 uM)”; for `C[C@H](O)c1noc([C@H]2C[C@@H](NC(=O)c3cc(-c4ccccc4)on3)C2)n1` it is “* (activity 100-200% of VX-809 (1 uM) with compound at 10 uM and VX-809 at 1 uM)”; for `C[C@@H](O)c1noc([C@H]2C[C@@H](NC(=O)c3cc(-c4ccccc4)on3)C2)n1` it is “* (activity 100-200% of VX-809 (1 uM) with compound at 10 uM and VX-809 at 1 uM)”.
Regarding `C[C@@H](O)c1noc(C2CC(NC(=O)c3cc(-c4ccccc4)on3)C2)n1` (some centres unmarked), the “Ieq (% VX-809)” value is “** (activity ≥200% of VX-809 (1 uM) with compound at 10 uM and VX-809 at 1 uM)”.
Take `C[C@H](O)c1noc(C2CC(NC(=O)c3cc(-c4ccccc4)on3)C2)n1` (some centres unmarked): the “Ieq (% VX-809)” value is “** (activity ≥200% of VX-809 (1 uM) with compound at 10 uM and VX-809 at 1 uM)”.
Regarding `C[C@H](O)c1nc([C@H]2C[C@@H](NC(=O)c3cc(-c4ccccc4)on3)C2)no1`, the “Ieq (% VX-809)” value is “* (activity 100-200% of VX-809 (1 uM) with compound at 10 uM and VX-809 at 1 uM)”.
Consider `C[C@@H](O)c1nc([C@H]2C[C@@H](NC(=O)c3cc(-c4ccccc4)on3)C2)no1`, for which the “Ieq (% VX-809)” value is “* (activity 100-200% of VX-809 (1 uM) with compound at 10 uM and VX-809 at 1 uM)”.
For `O=C(N[C@H]1C[C@H](CCO)C1)c1cc(-c2ccccc2)on1`, the “Ieq (% VX-809)” value is “** (activity ≥200% of VX-809 (1 uM) with compound at 10 uM and VX-809 at 1 uM)”.
Regarding `O=C(N[C@H]1C[C@@H](CCO)C1)c1cc(-c2ccccc2)on1`, the “Ieq (% VX-809)” value is “** (activity ≥200% of VX-809 (1 uM) with compound at 10 uM and VX-809 at 1 uM)”.
Consider `CS(=O)(=O)NC[C@H]1C[C@@H](NC(=O)c2cc(-c3ccccc3)on2)C1`, for which the “Ieq (% VX-809)” value is “* (activity 100-200% of VX-809 (1 uM) with compound at 10 uM and VX-809 at 1 uM)”.
For `C[C@@H](O)c1nnc(C[C@H]2C[C@@H](NC(=O)c3cc(-c4ccccc4)on3)C2)o1`, the “Ieq (% VX-809)” value is “** (activity ≥200% of VX-809 (1 uM) with compound at 10 uM and VX-809 at 1 uM)”.
Turning to `C[C@H](O)c1nnc(C[C@H]2C[C@H](NC(=O)c3cc(-c4ccccc4)on3)C2)o1`, the “Ieq (% VX-809)” value is “** (activity ≥200% of VX-809 (1 uM) with compound at 10 uM and VX-809 at 1 uM)”.
On to `C[C@H](O)c1nnc(CC2CC(NC(=O)c3cc(-c4ccccc4)on3)C2)o1` (some centres unmarked), for which the “Ieq (% VX-809)” value was “* (activity 100-200% of VX-809 (1 uM) with compound at 10 uM and VX-809 at 1 uM)”.
Next, `C[C@@H](O)c1nnc(C2CC(NC(=O)c3cc(-c4ccccc4F)on3)C2)o1` (some centres unmarked): “* (activity 100-200% of VX-809 (1 uM) with compound at 10 uM and VX-809 at 1 uM)”; `C[C@@H](O)c1nnc([C@H]2C[C@@H](NC(=O)c3cc(-c4ccc(F)c(F)c4)on3)C2)o1`: “* (activity 100-200% of VX-809 (1 uM) with compound at 10 uM and VX-809 at 1 uM)”; `C[C@@H](O)c1nnc([C@H]2C[C@@H](NC(=O)c3cc(-c4ccc(F)cc4F)on3)C2)o1`: “* (activity 100-200% of VX-809 (1 uM) with compound at 10 uM and VX-809 at 1 uM)”.
The entry for `C[C@@H](O)c1nnc([C@H]2C[C@@H](NC(=O)c3cc(-c4ccc(O)cc4)on3)C2)o1` is “* (activity 100-200% of VX-809 (1 uM) with compound at 10 uM and VX-809 at 1 uM)”.
`C[C@@H](O)c1nnc([C@H]2C[C@@H](NC(=O)c3cc(-c4ccc(O)c(O)c4)on3)C2)o1`: the “Ieq (% VX-809)” value was “* (activity 100-200% of VX-809 (1 uM) with compound at 10 uM and VX-809 at 1 uM)”.
For `C[C@@H](O)c1nnc([C@H]2C[C@@H](NC(=O)c3cc(-c4cccc(O)c4)on3)C2)o1`, the “Ieq (% VX-809)” value was “* (activity 100-200% of VX-809 (1 uM) with compound at 10 uM and VX-809 at 1 uM)”.
Regarding `C[C@@H](O)c1nnc([C@H]2C[C@@H](NC(=O)c3cc(-c4cccc(F)c4)on3)C2)o1`, the “Ieq (% VX-809)” value is “* (activity 100-200% of VX-809 (1 uM) with compound at 10 uM and VX-809 at 1 uM)”.
`CC(=O)O[C@H](C)c1nnc([C@H]2C[C@H](NC(=O)c3cc(-c4ccccc4)on3)C2)o1`: the “Ieq (% VX-809)” value was “** (activity ≥200% of VX-809 (1 uM) with compound at 10 uM and VX-809 at 1 uM)”.
In the case of `C[C@@H](OC(=O)c1ccccc1)c1nnc([C@H]2C[C@H](NC(=O)c3cc(-c4ccccc4)on3)C2)o1`, the “Ieq (% VX-809)” value is “* (activity 100-200% of VX-809 (1 uM) with compound at 10 uM and VX-809 at 1 uM)”.
For the compound `O=C(N[C@H]1C[C@H](c2nnc(C3CCC3)o2)C1)c1cc(-c2ccccc2)on1`, the “Ieq (% VX-809)” value is “** (activity ≥200% of VX-809 (1 uM) with compound at 10 uM and VX-809 at 1 uM)”.
Next, `CC(C)CO[C@H](C)c1nnc([C@H]2C[C@H](NC(=O)c3cc(-c4ccccc4)on3)C2)o1`: “* (activity 100-200% of VX-809 (1 uM) with compound at 10 uM and VX-809 at 1 uM)”; `C[C@@H](O)c1nnc(C2CCCC(NC(=O)c3cc(-c4ccccc4)on3)C2)o1` (some centres unmarked): “* (activity 100-200% of VX-809 (1 uM) with compound at 10 uM and VX-809 at 1 uM)”.
With `O=C(N[C@H]1CC[C@@H](c2nnc(CO)o2)CC1)c1cc(-c2ccccc2)on1`, the “Ieq (% VX-809)” value was “* (activity 100-200% of VX-809 (1 uM) with compound at 10 uM and VX-809 at 1 uM)”.
Next, `O=C(NC1CCCC(n2cc(CO)nn2)C1)c1cc(-c2ccccc2)on1` (centres unmarked): “* (activity 100-200% of VX-809 (1 uM) with compound at 10 uM and VX-809 at 1 uM)”.
